Measurements reported in US7807678B2, “Peptidomimetics of biologically active metallopeptides” (Palatin Technologies, Inc., priority 2001, dated 2010).
Non-standard residues stand in square brackets, D forms with d. Residues, ends and D or L forms follow the SMILES beside them. *: point of attachment. Hyp = O=C(O)[C@@H]1C[C@@H](O)CN1; NH(CH2)3NH2 = NCCCN*; Bn = c1ccc(C*)cc1

How the values were obtained:
[1] = target: MC4-R (Homo sapiens, UniProt P32245); assay: Competitive inhibition binding assay, 125I-NDP-α-MSH, MC4-R; parameters: expressed in transfected cells; settings: for Inhibition at 1 μM MC4-R: 1 μM compound, inhibition of 125I-NDP-α-MSH binding, mean of triplicates, results less than 0% reported as 0%
Experimental: (§1) The competitive inhibition binding assay was conducted using membranes prepared from hMC3-R, hMC4-R, hMC5-R, and B-16 mouse melanoma cells (containing MC1-R) using 0.4 nM ^125I-NDP-α-MSH (New England Nuclear, Boston, Mass., USA) in 50 mM HEPES buffer containing 1 mM MgCl2, 2 mM CaCl2, and 5 mM KCl, at pH 7.2. The assay tube also contained a chosen concentration of the test peptidomimetic of this invention, generally 1 μM, for determining its efficacy in inhibiting the binding of ^125I-NDP-α-MSH to its receptor.
(§2) Incubation was for 90 minutes at room temperature, after which the assay mixture was filtered and the membranes washed three times with ice cold buffer. The filter was dried and counted in a gamma counter for remaining radioactivity bound to the membranes. 100% specific binding was defined as the difference in radioactivity (cpm) bound to cell membranes in the absence and presence of 1 μM α-MSH. […] Each assay was conducted in triplicate and the actual mean values are described.

[2] = target: MC5-R (Homo sapiens, UniProt P33032); assay: Competitive inhibition binding assay, 125I-NDP-α-MSH, MC5-R; parameters: expressed in transfected cells; settings: for Inhibition at 1 μM MC5-R: 1 μM compound, inhibition of 125I-NDP-α-MSH binding, mean of triplicates, results less than 0% reported as 0%
Experimental: as §1, §2

[3] = target: T1, MC1-R (B-16 mouse melanoma cells) (Mus musculus, UniProt Q01727); assay: Competitive inhibition binding assay, 125I-NDP-α-MSH, MC1-R; settings: for Inhibition at 1 μM MC1-R: 1 μM compound, inhibition of 125I-NDP-α-MSH binding, mean of triplicates, results less than 0% reported as 0%
T1 construct: B-16 mouse melanoma cells (containing MC1-R); endogenous in cells; host or cells: B-16 mouse melanoma cells
Experimental: as §1, §2

[4] = target: MC3-R (Homo sapiens, UniProt P41968); assay: Competitive inhibition binding assay, 125I-NDP-α-MSH, MC3-R; parameters: expressed in transfected cells; settings: for Inhibition at 1 μM MC3-R: 1 μM compound, inhibition of 125I-NDP-α-MSH binding, mean of triplicates, results less than 0% reported as 0%
Experimental: as §1, §2

MC3-R, sequence (P41968 whole entry): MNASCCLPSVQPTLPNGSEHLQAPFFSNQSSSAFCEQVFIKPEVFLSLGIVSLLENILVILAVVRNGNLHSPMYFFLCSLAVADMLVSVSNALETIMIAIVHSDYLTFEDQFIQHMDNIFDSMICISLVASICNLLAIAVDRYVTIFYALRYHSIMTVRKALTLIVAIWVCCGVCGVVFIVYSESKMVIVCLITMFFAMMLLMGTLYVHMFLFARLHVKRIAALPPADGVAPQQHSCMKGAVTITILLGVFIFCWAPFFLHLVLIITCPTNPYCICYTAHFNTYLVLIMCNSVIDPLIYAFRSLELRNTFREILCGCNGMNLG
T1 sequence (Q01727 whole entry): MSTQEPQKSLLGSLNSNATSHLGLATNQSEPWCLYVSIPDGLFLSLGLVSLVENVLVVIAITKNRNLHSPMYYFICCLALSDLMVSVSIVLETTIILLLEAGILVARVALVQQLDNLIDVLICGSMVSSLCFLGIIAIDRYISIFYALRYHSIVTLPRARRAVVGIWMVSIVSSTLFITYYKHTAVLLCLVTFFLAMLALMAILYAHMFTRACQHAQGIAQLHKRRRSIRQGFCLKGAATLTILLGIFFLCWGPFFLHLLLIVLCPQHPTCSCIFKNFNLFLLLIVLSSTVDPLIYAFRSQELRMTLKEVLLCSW
MC4-R, sequence (P32245 whole entry): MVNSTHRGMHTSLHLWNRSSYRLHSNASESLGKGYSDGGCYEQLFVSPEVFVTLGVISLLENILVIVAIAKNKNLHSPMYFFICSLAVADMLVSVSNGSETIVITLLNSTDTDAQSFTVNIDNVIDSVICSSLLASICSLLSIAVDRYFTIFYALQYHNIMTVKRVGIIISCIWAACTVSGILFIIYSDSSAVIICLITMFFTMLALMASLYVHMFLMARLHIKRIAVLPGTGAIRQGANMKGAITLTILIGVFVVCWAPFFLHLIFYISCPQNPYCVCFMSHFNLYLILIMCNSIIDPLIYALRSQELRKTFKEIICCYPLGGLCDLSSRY
MC5-R, sequence (P33032 whole entry): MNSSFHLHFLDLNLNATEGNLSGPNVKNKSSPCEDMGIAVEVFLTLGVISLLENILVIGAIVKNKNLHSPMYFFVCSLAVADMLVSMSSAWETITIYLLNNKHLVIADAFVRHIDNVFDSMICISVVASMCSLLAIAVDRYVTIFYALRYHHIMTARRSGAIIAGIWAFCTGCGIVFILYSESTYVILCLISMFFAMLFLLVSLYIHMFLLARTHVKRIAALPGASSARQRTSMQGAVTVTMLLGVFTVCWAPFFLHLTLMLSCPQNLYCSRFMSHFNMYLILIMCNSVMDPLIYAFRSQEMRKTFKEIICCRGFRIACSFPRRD

Compound | Inhibition at 1 μM MC4-R [1] [%] | Inhibition at 1 μM MC5-R [2] [%] | Inhibition at 1 μM MC1-R [3] [%] | Inhibition at 1 μM MC3-R [4] [%] | inhibition at 1 µM [1] [%] | inhibition at 1 µM [2] [%] | inhibition at 1 µM [3] [%] | inhibition at 1 µM [4] [%]
NCCCC[C@H]1C(=O)N2C(CC[C@@H]2COc2ccc3ccccc3c2)N1C(=O)[C@@H](Cc1ccccc1Cl)NC(=O)[C@@H](N)C1Cc2ccccc2C1 (stereo partly shown) [Example 90] | 12 | 46 | 10 | 0 | – | – | – | –
NCCCC[C@H]1C(=O)N2C(CC[C@@H]2COc2ccc3ccccc3c2)N1C(=O)[C@@H](Cc1ccccc1Cl)NC(=O)[C@@H]1C[C@H](Oc2ccc3ccccc3c2)CN1 (stereo partly shown) [Example 91] | 0 | 17 | 21 | 0 | – | – | – | –
NCCCC[C@H]1C(=O)N2C(CC[C@@H]2COc2ccc3ccccc3c2)N1C(=O)[C@@H](Cc1ccccc1Cl)NC(=O)[C@@H]1C[C@H](Oc2ccccc2)CN1 (stereo partly shown) [Example 92] | 22 | 21 | 7 | 0 | – | – | – | –
NCCCC[C@H]1C(=O)N2C(CC[C@@H]2COc2ccc3ccccc3c2)N1C(=O)[C@@H](Cc1ccccc1Cl)NC(=O)[C@H]1Cc2ccccc2CN1 (stereo partly shown) [Example 93] | 79 | 18 | 47 | 12 | – | – | – | –
NCCCC[C@H]1C(=O)N2C(CC[C@@H]2COc2ccc3ccccc3c2)N1C(=O)[C@@H](Cc1ccccc1Cl)NC(=O)[C@@H]1Cc2ccccc2N1 (stereo partly shown) [Example 95] | 47 | 14 | 34 | 0 | – | – | – | –
[2H]NC(Cc1cnc[nH]1)C(=O)NC(Cc1ccccc1)C(=O)N1C(CCCNC(=N)N)C(=O)N2C(COc3ccc4ccccc4c3)CCC21 (stereo not shown) [Example 97] | 69 | 28 | 99 | 30 | – | – | – | –
NCCCCC1C(=O)N2C(COc3ccccc3)CCC2N1C(=O)C(N)Cc1ccc(Cl)cc1 (stereo not shown) [Example 103] | 0 | 0 | 9 | 0 | – | – | – | –
NCCCCC1C(=O)N2C(COc3ccccc3)CCC2N1C(=O)C(N)Cc1ccccc1Cl (stereo not shown) [Example 104] | 0 | 0 | 0 | 4 | – | – | – | –
NCCCC[C@H]1C(=O)N2C(CC[C@@H]2COc2ccccc2)N1C(=O)[C@@H](Cc1ccc(Cl)cc1)NC(=O)[C@@H]1Cc2ccccc2CN1 (stereo partly shown) [Example 106] | 51 | 25 | 81 | 19 | – | – | – | –
NCCCC[C@H]1C(=O)N2C(CC[C@@H]2COc2ccc3c(c2)CCCC3)N1C(=O)[C@@H](Cc1ccc(Cl)cc1)NC(=O)[C@@H]1Cc2ccccc2CN1 (stereo partly shown) [Example 108] | 94 | 66 | 96 | 19 | – | – | – | –
NCCCC[C@H]1C(=O)N2C(CC[C@@H]2COc2ccc3c(c2)CCCC3)N1C(=O)[C@@H](Cc1ccc(Cl)cc1)NC(=O)[C@@H](N)COCc1ccccc1 (stereo partly shown) [Example 109] | 78 | 56 | 93 | 4 | – | – | – | –
NCCCCCCC(=O)N[C@@H](COCc1ccccc1)C(=O)N[C@H](Cc1ccc(Cl)cc1)C(=O)N1C2CC[C@H](COc3ccc4c(c3)CCCC4)N2C(=O)[C@@H]1CCCCN (stereo partly shown) [Example 110] | 96 | 84 | 97 | 59 | – | – | – | –
C[C@H](N)C(=O)N[C@@H](Cc1cnc[nH]1)C(=O)N[C@H](Cc1ccccc1)C(=O)N1C[C@H](OCc2ccccc2)C[C@H]1C(=O)NCCCN [Example 135] (H-AH[dF][Hyp](Bn)-{NH(CH2)3NH2}) | 0 | 0 | 93 | 0 | – | – | – | –
[2H]N[C@@H](Cc1ccccc1)C(=O)N1C[C@H](OCc2ccccc2)C[C@H]1C(=O)NCCCN [Example 137] | – | – | – | – | 0 | 0 | 23 | 0

Next, values leading:

Inhibition at 1 μM MC4-R [1] [%] | Inhibition at 1 μM MC5-R [2] [%] | Inhibition at 1 μM MC1-R [3] [%] | Inhibition at 1 μM MC3-R [4] [%] | inhibition at 1 µM [1] [%] | inhibition at 1 µM [2] [%] | inhibition at 1 µM [3] [%] | inhibition at 1 µM [4] [%] | Compound
34 | 22 | 24 | 0 | – | – | – | – | NCCCC[C@H]1C(=O)N2C(CC[C@@H]2COc2ccc3ccccc3c2)N1C(=O)[C@@H](Cc1ccccc1Cl)NC(=O)C1(N)CCc2ccccc2C1 (stereo partly shown) [Example 89]
12 | 17 | 39 | 0 | – | – | – | – | NCCCC[C@H]1C(=O)N2C(CC[C@@H]2COc2ccc3ccccc3c2)N1C(=O)[C@@H](Cc1ccccc1Cl)NC(=O)C1(N)CCc2ccccc21 (stereo partly shown) [Example 96]
16 | 14 | 11 | 13 | – | – | – | – | NCCCC[C@H]1C(=O)N2C(CC[C@@H]2COc2ccc3ccccc3c2)N1C(=O)[C@@H](Cc1ccccc1Cl)NCc1ccccc1 (stereo partly shown) [Example 102]
69 | 5 | 3 | 2 | – | – | – | – | N=C(N)NCCC[C@H]1C(=O)N(CCc2ccc3ccccc3c2)CCN1C(=O)[C@H](N)Cc1ccccc1Cl [Example 122]
87 | 29 | 34 | 38 | – | – | – | – | N=C(N)NCCC[C@H]1C(=O)N(CCc2ccc3ccccc3c2)CCN1C(=O)[C@H](N)Cc1ccc(Cl)cc1 [Example 123]
96 | 35 | 7 | 57 | – | – | – | – | N=C(N)NCCC[C@H]1C(=O)N(CCc2c[nH]c3ccccc23)CCN1C(=O)[C@H](N)Cc1ccc(Cl)cc1Cl [Example 124]
68 | 43 | 10 | 28 | – | – | – | – | N=C(N)NCCC[C@H]1C(=O)N(CCc2c[nH]c3ccccc23)CCN1C(=O)[C@H](N)Cc1ccc(Cl)cc1 [Example 125]
78 | 34 | 11 | 42 | – | – | – | – | Cc1ccc(CCN2CCN(C(=O)[C@H](N)Cc3ccc(Cl)cc3Cl)[C@@H](CCCNC(=N)N)C2=O)cc1 [Example 126]
49 | 17 | 9 | 9 | – | – | – | – | Cc1ccc(CCN2CCN(C(=O)[C@H](N)Cc3ccc(Cl)cc3)[C@@H](CCCNC(=N)N)C2=O)cc1 [Example 127]
31 | 21 | 5 | 0 | – | – | – | – | N=C(N)c1ccc(C[C@H]2C(=O)N(CCc3ccc4ccccc4c3)CCN2C(=O)[C@H](N)Cc2ccc(Cl)cc2Cl)cc1 [Example 128]
81 | 39 | 0 | 33 | – | – | – | – | NCCC[C@H]1CN(CCc2ccc3ccccc3c2)CCN1C(=O)[C@H](N)Cc1ccc(Cl)cc1Cl [Example 130]
